Here are results for twelve molecules from patent US9926304B2, “1-(arylmethyl)quinazoline-2,4(1H,3H)-diones as PARP inhibitors and the use thereof” (Impact Therapeutics, Inc., priority 2011, dated 2018).

The test system of test [1] is SW620 human colorectal cancer cells. As to the kind of experiment: MTT based cell viability assay: potentiation of the growth inhibiting activity of MMS. Particulars: Homo sapiens, SW-620, 120 h, read-out: IC50 (nM), potentiation of the growth inhibiting activity of MMS, SW620 cells, 1.7 μg/ml MMS, 5 days (120 hours), MTT.
Protocol: Briefly, SW620 human colorectal cancer cells were used to measure the cell growth inhibiting activity of DNA alkylating anticancer drug MMS. […] SW620 cells were grown and maintained in RPMI1640 (Gibco) medium supplemented with 10% FBS (Hyclone). In the first day of experiment, 4000 cells were seeded to each well of a 96-well cell culture plate and incubated at 37° C. and 5% CO2 in a cell culture incubator overnight. In the next day, the cell culture medium was removed. […] The serial dilutions of the reference compounds and the compounds to be tested were made with a 1:3 and 1:10 fashion in DMSO. The 10-fold concentrated solutions of these compounds were made by mixing 10 μl of the serial dilutions in DMSO with 90 μl fresh medium. The final concentration of DMSO in the medium was 1%. The cells were incubated at 37° C. in 5% CO2 cell culture incubator for additional 5 days (120 hours). Afterwards, the 96-well cell culture plate was taken out and 20 μl of MTT solution was added to each well and incubated at 37° C. for 4 h. The medium was removed and 100 μl DMSO was added to each well. The 96-well cell culture plates were shaked adequately for 10 min and read in a Varioskan Flash plate reader (Thermo Fisher Scientific) at 520 and 690 nm. The data were analyzed by Prism 5 software (GraphPad). The obtained 520 nm absorbance readings subtracting corresponding 690 nm reading were analyzed and plotted against the Log scale of the compound concentrations.
Test [2] relates to Human breast cancer cell line T47D. Description: Cell based caspase-3 activity assay: potentiation of MMS induced apoptosis. As to conditions: Homo sapiens, T47D, 24 h, T47D cells, 11.1 μg/ml MMS, 24 hours, intracellular caspase-3 activity; read-out: EC50 (nM), potentiation of the apoptosis inducing activity of MMS. The text has this: Determination of the synergistic potentiation effect of 1-(3-(4-(pyrimidin-2-yl)piperazine-1-carbonyl)benzyl)quinazoline-2,4(1H,3H)-dione and analogs on MMS induced apoptosis using a cell based caspase-3 activity assay
Human breast cancer cell line T47D was used to determine the potentiation effect of PARP inhibitors on the apoptosis inducing activity of DNA damaging anticancer drugs such as MMS. Intracellular caspase-3 activity was used to measure cell apoptosis. The dose response effect of MMS to induce intracellular caspase activity was carefully titrated and the concentration that only induces a minimal level of caspase activity was used to test the potentiation effect of PARP inhibitors. Briefly, T47D cells were grown in DMEM/F12 cell culture medium (Hyclone) supplemented with 0.2 U/ml insulin (Genview) and 10% FBS (Hyclone). A day before experiment, 20000 of T47D cells were seeded to each well of a 96-well cell culture plate and maintained at 37° C. and 5% CO2 in a cell culture incubator overnight. On the day of experiment, cell culture medium was removed. One hundred and eighty μl of fresh medium containing 11.1 μg/ml MMS was added to each well and followed by 20 μl medium containing 10 folds of the concentrations of experimental drugs or reference compounds (ADZ2281 and ABT-888). The serial dilutions of the compounds to be tested and the reference compounds were made in a 1:3 and 1:10 fashion in DMSO. The 10-fold compound solutions were made by mixing 10 μl DMSO serial dilution solutions with 90 μl fresh growth medium. Twenty four hours later, the cells in the 96-well plates were centrifuged at 1000 g for 5 min and the supernatants were removed. Fifty μl lysis buffer (10 mM Tris, pH7.5, 0.1M NaCl, 1 mM EDTA, 0.01% Triton X-100) was added to each well and the plates were shaked horizontally for 30 min at 4° C. After centrifugation at 1000 g at 4° C. for 10 min, 20 μl of supernatant was transferred from each well to a corresponding well in a 384-well black plate. Twenty μl of buffer (20 mM PIPES, pH7.4, 4 mM EDTA and 0.2% CHAPS) containing 20 μM fluorescent caspase-3 substrate ((Ac-DEVD)2-R110, AnaSpec Cat #60304-5) was added to each well afterwards. The plates were shaked to uniformly mix the wells and incubated at 37° C. for 3 h. The fluorescence intensity was measured using the following wavelength: ex: 496 nm, em: 520 nm using a fluorescence plate reader (Varioskan Flash, Thermo Fisher Scientific). The caspase-3 activity induced by the compounds was expressed as a relative fluorescence unit (RFU). The obtained fluorescence readings were analyzed using a commercial graphic software (GraphPad Prism 5) and plotted against the Log value of the compound concentrations. The EC50 values were obtained by fitting the data points with the equation of Y (fluorescence reading)=minimal fluorescence reading+(maximal fluorescence reading−minimal fluorescence reading)/(1+10^(Log EC50−Log C)), where C is the concentration of the testing compound.
The synergistic potentiation effect of compounds on MMS induced apoptosis in T47D cells is expressed as EC50 values and listed in Table 2.

Consider `O=C(c1cccc(Cn2c(=O)[nH]c(=O)c3ccccc32)c1Cl)N1CCN(C(=O)C2CCCC2)CC1` [Example 59, 1-(2-Chloro-3-(4-(cyclopentylcarbonyl)piperazine-1-carbonyl)benzyl)quinazoline-2,4(1H,3H)-dione], for which, in test [1], the IC50 is more than 10000 nM. For the same molecule, in test [2], the EC50 is more than 10000 nM.
`O=C(c1cccc(Cn2c(=O)[nH]c(=O)c3ccccc32)c1Cl)N1CCN(c2ncccn2)CC1` [Example 60, 1-(2-Chloro-3-(4-(pyrimidin-2-yl)piperazine-1-carbonyl)benzyl)quinazoline-2,4(1H,3H)-dione]: the IC50 in test [1] was more than 10000 nM. In addition, in test [2], the EC50 is more than 10000 nM.
On to `O=C(c1cccc(Cn2c(=O)[nH]c(=O)c3ccccc32)c1F)N1CCN(c2ncccn2)CC1` [Example 61, 1-(2-Fluoro-3-(4-(pyrimidin-2-yl)piperazine-1-carbonyl)benzyl)quinazoline-2,4(1H,3H)-dione], for which the IC50 in test [1] was determined as 61 nM. Further, in test [2], the concentration for a half-maximal effect (EC50) came to 17 nM.
For `O=C(c1cccc(Cn2c(=O)[nH]c(=O)c3ccccc32)c1F)N1CCN(C(=O)C2CCCC2)CC1` [Example 62, 1-(3-(4-(Cyclopentylcarbonyl)piperazine-1-carbonyl)-2-fluorobenzyl)quinazoline-2,4(1H,3H)-dione], in that order: 816 nM and 379 nM.
Turning to `O=C(c1cc(F)cc(Cn2c(=O)[nH]c(=O)c3ccccc32)c1)N1CCN(c2ncccn2)CC1` [Example 63, 1-(5-Fluoro-3-(4-(pyrimidin-2-yl)piperazine-1-carbonyl)benzyl)quinazoline-2,4(1H,3H)-dione], the IC50 in test [1] came to 50 nM. In addition, the EC50 in test [2] came to 15 nM.
The corresponding values for `O=C(c1cc(F)cc(Cn2c(=O)[nH]c(=O)c3ccccc32)c1)N1CCN(C(=O)C2CCCC2)CC1` [Example 64, 1-(3-(4-(Cyclopentylcarbonyl)piperazine-1-carbonyl)-5-fluorobenzyl)quinazoline-2,4(1H,3H)-dione] are 177 nM and 51 nM.
The corresponding values for `O=C(c1cc(Cn2c(=O)[nH]c(=O)c3ccccc32)ccc1Cl)N1CCN(C(=O)C2CCCCC2)CC1` [Example 66, 1-(4-Chloro-3-(4-(cyclohexylcarbonyl)piperazine-1-carbonyl)benzyl)quinazoline-2,4(1H,3H)-dione] are 991 nM and 604 nM.
The corresponding values for `O=C(c1ccc(Cn2c(=O)[nH]c(=O)c3ccccc32)o1)N1CCN(C(=O)C2CCCC2)CC1` [Example 67, 1-((2-(4-(Cyclopentylcarbonyl)piperazine-1-carbonyl)furan-5-yl)methyl)quinazoline-2,4(1H,3H)-dione] are 2050 nM and 4820 nM.
On to `O=C(c1ccc(Cn2c(=O)[nH]c(=O)c3ccccc32)o1)N1CCN(c2nsc3ccccc23)CC1` [Example 68, 1-((2-(4-(Benzo[d]isothiazol-3-yl)piperazine-1-carbonyl)furan-5-yl)methyl)quinazoline-2,4(1H,3H)-dione], for which the IC50 in test [1] stood at 673 nM. In addition, the EC50 in test [2] worked out at 635 nM.
The corresponding values for `O=C(c1cccc(Cn2c(=O)[nH]c(=O)c3ccccc32)n1)N1CCN(c2ncccn2)CC1` [Example 71, 1-((2-(4-(Pyrimidin-2-yl)piperazine-1-carbonyl)pyridin-6-yl)methyl)quinazoline-2,4(1H,3H)-dione] are 70 nM and 67 nM.
On to `O=C(c1cccc(Cn2c(=O)[nH]c(=O)c3ccccc32)c1)N1CCN(c2nccs2)CC1` [Example 72, 1-(3-(4-(Thiazol-2-yl)piperazine-1-carbonyl)benzyl)quinazoline-2,4(1H,3H)-dione], for which the IC50 in test [1] turned out to be 80 nM. For the same molecule, the EC50 in test [2] is 41 nM.
On to `O=C(c1cccc(Cn2c(=O)[nH]c(=O)c3ccccc32)c1)N1CCN(CC2CCCCC2)CC1` [Example 73, 1-(3-(4-(Cyclohexylmethyl)piperazine-1-carbonyl)benzyl)quinazoline-2,4(1H,3H)-dione], for which the IC50 in test [1] was determined as 3380 nM. Moreover, the EC50 in test [2] was determined as 811 nM.
